The values that follow come from patent US20250346613A1, “BORIC ACID PROTEASOME INHIBITOR AND USE THEREOF” (ARTIVILA BIOPHARMA, priority 2022, published 2025).

Data set [1] in a line: Blood concentration measurement of orally-administrated mice. Conditions: C57BL/6JNifdc, mouse, plasma, oral, 30 mg/kg. The format is in vivo, C57BL/6JNifdc mice. The procedure:
The C57BL/6JNifdc mice used in this experiment were provided by Zhejiang Vital River Laboratory Animal Technology Co., Ltd. The compounds were dissolved in DMSO/Solutol/Saline (v/v/v=10/10/80) as a stock solution (3 mg/mL). The stock solution was administrated orally to 6 C57BL/6JNifdc mice at a dose of 30 mg/kg. Blood was collected from the orbital venous plexus at 0.5 h, 1 h, 1.5 h, and 2 h after oral administration.
Approximately 200 μL of blood samples were collected into EDTAK2 Blood Collection tubes and then immediately centrifuged at 10,000 rpm for 5 min. 66 μL of plasma supernatant was added with 198 μL of acetonitrile (Energy), the resulting mixture was shaken on a vortex for 5 min, and then immediately centrifuged at 13000 rpm for 8 min. 200 μL of supernatant was taken for blood compound concentration measurement.
The compound was accurately weighed and dissolved in acetonitrile to a concentration of 100 μg/mL. 50 μL of compound was pipetted and added to 4.95 mL of acetonitrile/water (v/v=3/1) solution to obtain 1000 ng/mL mother liquid. 650 μL of the mother liquid was taken and sequentially diluted with a solution of acetonitrile/water (v/v=3/1) in a 2-fold gradient to obtain standard samples with various concentrations of 500 ng/mL, 250 ng/mL, 125 ng/mL, 62.5 ng/mL, and 31.25 ng/mL.
Standard solutions with concentrations of 1000 ng/mL, 500 ng/mL, 250 ng/mL, 125 ng/mL, 62.5 ng/mL, and 31.25 ng/mL were measured by using LC-MS (LC-MS 2020+LC-2030 Plus, Shimadzu) SIM mode to obtain a calibration curve. The treated blood samples were measured by this method and then subjected to quantitative analysis by using the calibration curve to obtain compound concentration data of each treated blood sample.
The data were exported and the average blood compound concentration at each sampling time was calculated.
Blood compound concentration=compound concentration in treated blood sample×4/molecular weight of the compound. The average blood compound concentration is the average of the compound concentrations in the blood at each sampling time.

The conditions of data set [2]: background statement; cannot be used orally; cited from earlier work.

For the compound `CC(C)C[C@H](NC(=O)[C@H](Cc1ccccc1)NC(=O)c1cnccn1)B(O)O` [Bortezomib, bortezomib, reference compound], the concentration at 0.5 h in data set [1] (0.5 h, read-out: Average blood compound concentration (μM) 0.5 h) was 2 µM. Besides, the concentration at 1 h in data set [1] (1.0 h, read-out: Average blood compound concentration (μM) 1.0 h) stood at 1.3 µM. Moreover, the concentration at 1.5 h in data set [1] (1.5 h, read-out: Average blood compound concentration (μM) 1.5 h) was determined as 1 µM. For the same compound, in data set [1] (2.0 h, read-out: Average blood compound concentration (μM) 2.0 h), the concentration at 2 h amounted to 0.9 µM. For the same compound, the “bioavailability (oral)” value in data set [2] is listed as “low bioavailability”.
